Experimental data from the METLIN SMRT retention time set (Domingo-Almenara et al. 2019).

test: gradient 5% acetonitrile 3 min, to 50% in 2 min, to 85% in 15 min, held 3 min, 100 µL/min; details: column: Zorbax Extend-C18 2.1 x 50 mm; eluents: water / acetonitrile, 0.1% formic acid
Procedure, shortened: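 Retention times come from adduct peaks that were picked computationally and then checked by hand. The standards, pure and pooled in mixtures of ~100 molecules, were run on a Zorbax Extend-C18 column (2.1 × 50 mm, 1.8 μm) at 100 μL/min with water and acetonitrile, each with 0.1% formic acid. Detection was by quadrupole time-of-flight mass spectrometry in positive and negative ionization mode, with a dead volume of 40 μL and a dwell volume of 900 μL.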

| Compound | RP-LC retention time |
| --- | --- |
| O=C(NCc1cc(-c2ccc3c(c2)OCCO3)on1)c1ccc2nsnc2c1 | 788 s |
| CCN1CCN(c2cc(C)c3cc(NC(=O)CC(C)C)ccc3n2)CC1 | 560 s |
| Cc1cccc(N(C)C(=O)C(C)n2cnc3nc4c(cc3c2=O)CCCC4)c1 (stereo not drawn) | 762 s |
| Cc1cc(C(=O)NCC23CCCC=C2N(CC2CC2)C(=O)CC3)n(C)n1 (stereo not drawn) | 800 s |
| Cc1nc(C)c(-c2ccc(=O)n(CCNS(=O)(=O)c3ccc4c(c3)OCCO4)n2)s1 | 642 s |
| Cc1cc(C(=O)N2CC(n3cc(COc4ccc(F)cc4)nn3)C2)n(C)n1 | 637 s |
| O=C(Cn1ccc2c(SCc3ccccc3)nccc21)N1CCN(c2ccc(F)cc2)CC1 | 786 s |
| CCCn1c(C)cnc1C1CN(C(=O)c2cccs2)C1 | 586 s |
| Cc1ccc(-c2nc(C3CC(=O)N(c4ccc(Cl)cc4)C3)no2)cc1 (stereo not drawn) | 978 s |
| CCc1nc2cc(N3CCC(C(=O)N4CCN(CC)CC4)CC3)cnc2nc1CC | 590 s |
| Cc1nn(C)c2nc(OC(C)C(=O)Nc3ccccc3F)cc(C(F)(F)F)c12 (stereo not drawn) | 1050 s |
| Cc1ccc(NC(=O)Cn2c(C)cc(-c3nnc(C)o3)c2C)c(Cl)c1 | 835 s |
| CCCn1cc(CCNC(=O)c2cncc(Br)c2)c2cccnc21 | 723 s |
| O=c1c2cc(-c3ccc(Cl)cc3)nn2ccn1Cc1nc(-c2cccc(F)c2)no1 | 1190 s |
| CCCCn1cnc2c(-c3ccccc3)cn(CC(=O)NCCC(C)C)c2c1=O | 1050 s |
| O=c1cc(O)cc(/C=C/c2ccc(O)c(O)c2)o1 | 680 s |
| Fc1ccc(Cc2nc(-c3ccn4cnnc4c3)no2)cc1 | 764 s |
| Cc1c(C(=O)C(=O)Nc2ccccc2C(N)=O)c2ccccc2n1C | 796 s |
| COc1ccc2cccc(NC(=O)c3c[nH]c4ccccc34)c2n1 | 986 s |

| Compound | RP-LC retention time |
| --- | --- |
| O=S(=O)(NCC(c1cccnc1)N1CCN(c2ccc(F)cc2)CC1)c1cccs1 (stereo not drawn) | 618 s |
| Cc1cc(N2CCN(C)CC2)nc2ccc(NC(=O)C(C)Oc3ccc(Cl)cc3Cl)cc12 (stereo not drawn) | 690 s |
| O=C(Cn1cccc1-c1nc(-c2ccc(Cl)cc2)cs1)NCCCN1CCOCC1 | 612 s |
| COc1ccc(C(=O)N2CCCC2c2nc(-c3ccc(OC)cc3)no2)cc1 (stereo not drawn) | 957 s |
| Cc1noc2ncn(CC(=O)NCc3ccccc3F)c(=O)c12 | 705 s |
| CC(C)(C)c1cc(N)n(C2CCS(=O)(=O)C2)n1 (stereo not drawn) | 623 s |
| CCc1nc2cc(-c3noc(-c4nn(C)c5ccccc45)n3)ccc2o1 | 1130 s |
| C=CCN1C(=O)COc2ccc(-c3csc(NC(=O)COC)n3)cc21 | 785 s |
| CCCN1C(=O)c2ccccc2Sc2cc(-c3noc(C(C)NC(=O)c4ccco4)n3)ccc21 (stereo not drawn) | 984 s |
| COC(=O)c1ccc(NS(=O)(=O)c2cccc(S(C)(=O)=O)c2)cc1 | 706 s |
| Cc1c(S(=O)(=O)N2CCCCC2)c(C)n(C)c1-c1nnc(C2CCC2)o1 | 1000 s |
| Cc1cc(-n2nnc(C(=O)N3CCC(N4CCCCC4)CC3)c2-c2ccncc2)ccc1F | 602 s |
| O=C(CC1(O)C(=O)Nc2c(Cl)ccc(Cl)c21)c1ccc(Cl)cc1Cl (stereo not drawn) | 879 s |
| NC(=O)CNC(=O)c1sc2ncccc2c1-n1cccc1 | 622 s |
| O=C(Nc1cnc(-c2ccc(Cl)cc2)nc1)c1ccc(Br)o1 | 1120 s |
| CCc1noc(NC(C)=O)c1-c1ccc(C)c(S(=O)(=O)Nc2cc(Cl)c(OC)cc2OC)c1 | 859 s |
| CCc1ccc(C(=O)N2CCC(n3c(-c4ccoc4)nc4cccnc43)C2)cc1 (stereo not drawn) | 809 s |
| Cc1ccc2nc(-c3c(F)cccc3Cl)c(Nc3ccc4c(c3)OCO4)n2c1 | 700 s |
| COc1ccc2[nH]cc(CCn3ccc4c(cnc5nc(-c6ccc(Cl)cc6)nn54)c3=O)c2c1 | 990 s |

| Compound | RP-LC retention time |
| --- | --- |
| Nc1nc(N)c2nc(-c3cccc(O)c3)cnc2n1 | 599 s |
| COC(=O)C1=CN(CC(=O)N2CCN(c3ccc(F)cc3)CC2)S(=O)(=O)N=C1C | 878 s |
| CCc1ccc(CNC(=O)c2cc3n(n2)CC(C)(C(=O)NCc2ccccc2)N(C)C3=O)cc1 (stereo not drawn) | 832 s |
| O=C(Nc1ccc(F)c(Cl)c1)Nc1nccn(-c2ccc(F)cc2)c1=O | 1010 s |
| COc1cc(Cl)c(NS(=O)(=O)c2c(C)sc(C)c2-c2n[nH]c(C)c2C)c(OC)c1 | 980 s |
| CCNc1nc(-c2ccc(Br)cc2)cs1 | 887 s |
| CC(C)c1ccc(N2C(=O)C3N=NN(Cc4nc(-c5ccc(Br)cc5)no4)C3C2=O)cc1 (stereo not drawn) | 1220 s |
| CN1C(=O)C(C)(C(=O)NCc2ccccc2Cl)Oc2cccnc21 (stereo not drawn) | 795 s |
| O=C(CSc1nc(-c2cccc([N+](=O)[O-])c2)cs1)N1CCOCC1 | 756 s |
| O=C(Cn1nc2c3cc(-c4ccccc4)nn3ccn2c1=O)NCc1ccco1 | 792 s |
| Nc1nc(Cl)nc2c1ncn2[C@@H]1O[C@H](CO)[C@@H](O)[C@@H]1F | 600 s |
| COc1ccc(-c2cc3c(=O)n(CC(=O)Nc4ccc(C)c(F)c4)ccn3n2)cc1OC | 780 s |
| COc1cc(C2Oc3ccc(C4Oc5cc(O)cc(O)c5C(=O)C4O)cc3OC2CO)ccc1O (stereo not drawn) | 685 s |
| CCN(CC)S(=O)(=O)c1cc(-c2nnc(-c3ccc(Br)cc3)o2)ccc1C | 1230 s |
| CCc1nc2cc(CNC(=O)Cc3ccccc3C)ccc2n1C | 618 s |
| CCn1ccc2sc(C)c(C(=O)NCc3cccc(OC)c3)c2c1=O | 785 s |
| CC(C)N(C(=O)Cn1c(CNC(=O)c2ccco2)nc2ccccc21)c1ccccc1 | 698 s |
| CCc1ccc(-c2csc(Nc3cc(C)ccn3)n2)cc1 | 1040 s |
| Cc1cc(C)n(-c2ccc(N3CCC(C(=O)NCc4ccc5c(c4)OCO5)CC3)nn2)n1 | 642 s |

Results, then the molecule that gave them:

| RP-LC retention time | Compound |
| --- | --- |
| 1060 s | CCc1nc(-c2csc(S(=O)(=O)N3CCCC(C(=O)Nc4ccccc4CC)C3)c2)no1 (stereo not drawn) |
| 676 s | COCCN1[C@@H]2CCN(C(=O)Nc3ccccc3F)C[C@@]2(C(=O)N2CCOCC2)CCS1(=O)=O |
| 792 s | COc1cc(OC)cc(C(=O)N2C[C@@H]3C[C@H]2C[C@@H]3NS(=O)(=O)c2ccccc2)c1 |
| 617 s | COc1ccc(Cl)c2c(=O)c3c([nH]c12)CCN(CC(=O)Nc1ccccc1)C3 |
| 626 s | Cc1cc(N2CCN(C(=O)Nc3ccccc3F)CC2)nc(N2CCCC2)n1 |
| 620 s | CCN1CCCC1CNS(=O)(=O)c1ccc2c(c1)CCN2C(=O)CCC(=O)N1CCCCC1 (stereo not drawn) |
| 866 s | C[C@H](C(=O)O)c1cccc(C(=O)c2ccccc2)c1 |
| 1030 s | O=C(NCCC1=CCCCC1)C1CCCN(C(=O)Cc2cccc3ccccc23)C1 (stereo not drawn) |
| 829 s | O=C(NCc1ccc2c(c1)CCN2C(=O)c1ccccc1)C1CCN(S(=O)(=O)N2CCCC2)CC1 |
| 681 s | Cc1ccc(CC(=O)N2CCc3c(c(C(=O)N4CCCC(C(=O)NC5CC5)C4)nn3C)C2)cc1 (stereo not drawn) |
| 880 s | Cc1ccc(Cl)cc1N1C(=O)CN(S(C)(=O)=O)CC1(C)C(=O)NC1CCCCC1 (stereo not drawn) |
| 995 s | Cc1ccc(NC(=O)N2CCCC(C)(C(=O)NCc3ccccc3)C2)cc1Cl (stereo not drawn) |
| 657 s | COc1ccc(CNC(=O)C2CCCN(c3nnc4ccc(Cl)cn34)C2)cc1 (stereo not drawn) |
| 854 s | Cc1ccc(/C=N/NC(=O)c2ccccc2Oc2ccccc2)o1 |
| 913 s | O=C(CN1CCc2ccccc2C1C(=O)N1CCCCC1)NCc1cccc(Cl)c1 (stereo not drawn) |
| 1120 s | COC(=O)c1ccc(C(=O)Nc2nc3c(s2)CCc2ccccc2-3)cc1 |

| RP-LC retention time | Compound |
| --- | --- |
| 822 s | CC(NC(=O)c1cccc2[nH]ccc12)C(=O)N1CCCc2ccccc21 (stereo not drawn) |
| 608 s | O=C1NCCCCCN(C(=O)c2ccc(Cn3cncn3)o2)[C@H]2CCC[C@@H]12 |
| 647 s | COc1cc(C2C(C(=O)N3CCCCC3)=C(C)NC3=C2C(=O)CCC3)ccc1OC(C)=O (stereo not drawn) |
| 870 s | O=C(CN1C(=O)C(C(=O)N2CCCC2)Sc2ccccc21)NCc1ccccc1 (stereo not drawn) |
| 750 s | O=C(NC1CC1)[C@@H]1C[C@H](Oc2ccccc2)CN1C(=O)C1CCCC1 |
| 654 s | O=C(NCc1ccco1)C1CCCN(c2ccc(-c3ccccc3)nn2)C1 (stereo not drawn) |
| 828 s | COc1ccc(NC(=O)N2CCCC(C)(C(=O)NCc3ccccc3)C2)cc1 (stereo not drawn) |
| 590 s | CN(Cc1ccc(Cl)c(F)c1)C1CCc2nnc(C3CCOCC3)n2CC1 (stereo not drawn) |
| 716 s | CC(C)CC(NC(=O)Cc1cccs1)C(=O)Nc1nc2ccccc2[nH]1 (stereo not drawn) |
| 604 s | CC1CC(C)CN(CCCNC(=O)CCCOc2cc(=O)n(C)c3ccccc23)C1 (stereo not drawn) |
| 679 s | CCOC(=O)N1CCC(NC(=O)C2CCCN(c3ncnc4c3oc3ccccc34)C2)CC1 (stereo not drawn) |
| 771 s | CN(CC1CCOCC1)C(=O)Cc1ccccc1Cl |
| 727 s | Cc1ccccc1CNC(=O)C1CCCN(c2nnc(C)c3c(C)n(-c4ccccc4)nc23)C1 (stereo not drawn) |
| 947 s | Cc1nc(-c2ccccc2)sc1CC(=O)NCCC1=CCCCC1 |
| 855 s | O=C(CCC(=O)N1CC2CCCN2c2ccccc21)NCc1ccc2c(c1)OCO2 (stereo not drawn) |
